Reference: US20250170098A1, “MOLECULAR JACKHAMMER FOR MECHANICAL DESTRUCTION OF CELLULAR STRUCTURE” (William Marsh Rice University, priority 2022, published 2025)

Key:
A375 cells = assay: Clonogenic assay; type: cell-based, human; settings: Homo sapiens, A-375, read-out: lethal concentration to kill the cell population by 50% (VDA IC50)
Description: The clonogenic assay was conducted to confirm that cancer cells treated by plasmon-driven MJH are indeed death upon NIR-light activation (FIG. 18). Three molecules were analyzed: the most VDA active BL-204, medium active BL-141-2 and low active Cy7-amine. […] This was accomplished by incubating the MJH molecules with the A375 cells for 50 min and immediately activate the plasmon-driven MJH using 730 nm NIR-light at 80 mW/cm^2 for 10 min. This is considered a short contact time between the MJH and the A375 cells.
Clonogenic assay. A375 cells were seeded in 35 mm cell culture dishes at predetermined densities to allow for an approximately equal number of resultant colonies. The next day, cells were treated with Cy7.5-amine at variable concentration and with or without 730 nm light at 80 mWcm^−2 for 10 min. The cells were incubated with Cy7.5-amine for 50 min before the illumination, the media was replaced with fresh media after the illumination and cells were cultured for 6 days to allow for colony formation. Cells were then washed once with PBS and fixed-stained in a 0.5% (w/v) crystal violet in methanol/water solution (1:1) during 10 min. The excess of crystal violet was washed off with water, the plates were dried at room temperature and then the colonies were counted using ImageJ software version 1.52a, and the survival fraction was determined. All treatments were in triplicate.

[1] = system: human melanoma A375 cells; assay: Cell permeabilization to DAPI, flow cytometry analysis; type: cell-based; settings: for IC50: Homo sapiens, A-375, 10 min, 730 nm LED light at 80 mW/cm^2 for 10 min, DAPI positive cells, read-out: VDA IC50 (effective concentration needed to permeabilize cells by 50%); for permeabilization of the cells to DAPI: 730 nm light at 80 mW/cm^2 for 10 min
Description: The activity of plasmon-driven MJHs to open cell membranes by VDA upon NIR light-activation was evaluated in human melanoma A375 cells. When the cell membranes were open by VDA, DAPI enters immediately into the cells and stain the nucleus, and flow cytometry analysis was used to quantify the percentage of DAPI positive cells at variable concentrations of MJH. The flow cytometry analysis is conducted immediately after the cells were treated with 730 nm LED light at 80 mW/cm^2 for 10 min. Typically, it took ˜30 s to start cell counting and observe that DAPI already had entered into the cell membrane-compromised cells but not in the controls without VDA action. This is indicative of a rapid necrotic cell death and cell membrane permeabilization to DAPI by VDA action. The effective concentration needed to permeabilize cells by 50% (VDA IC50) was estimated for each molecule.
The flow cytometry data was analyzed using FlowJo software version 10.5.3. Then, a wide polygonal gate was drawn as shown in FIG. 33A since we were interested in detecting any cell death after treatment, we were not only interested in measuring healthy cell populations. Sometimes, we observed that the death cell population upon treatment shifted outside the gate if a narrow gate was used. Then, the singlets were selected and the DAPI fluorescence intensity was plotted versus the SSC-A and the gate for DAPI positive cells was drawn as shown in FIG. 33C and the analysis was applied to all samples in the group. In FIG. 33D, a DAPI positive population is observed in the same analysis group. This analysis was applied to calculate the percentage of DAPI positive cells.
Cell Permeabilization and flow cytometry analysis. A375 cells were cultured as described before. One day before the treatment, cells were inoculated at 5 million cells per dish (10 cm polystyrene tissue culture dish). The cells were harvested using 0.05% trypsin-EDTA (Gibco, 25-300-054), then the cells were counted and were adjusted to a cell density of 2×10^5 cells/mL in DMEM media with L-glutamine, 4.5 g/L glucose, and sodium pyruvate (Corning Inc. 10013CV) and supplemented with 10% FBS (Corning, 35010CV), 2×MEM vitamin solution (Gibco, 11120052), 1×MEM non-essential amino acid solution (Gibco, 11140050) and penicillin/streptomycin. 1 mL of this cell suspension containing 2×10^5 cells was used in each treatment. In a 1.5 mL Eppendorf tube, […] containing 2 mM Cy7.5-amine (or other cyanine molecule or other concentration) in DMSO (Fisher, 99.7%) was placed in the bottom of the tube, then 1 mL of the cell suspension was added into the tube to get final concentration of 2 μM of Cy7.5-amine containing 0.1% DMSO and 2×10^5 cells. The mixture was then incubated at 37° C. and 5% CO2 for 30 min. Then, 1 mM DAPI was added into the cell suspension. Then, the cells suspension was transferred to a […] tissue culture dish and immediately the cells were treated under the light beam of NIR light of 730 nm at 80 mW/cm^2 (or adjusted powers down to 20 mW/cm^2) for 10 min (or adjusted illumination times down to 30 s) using LED light source (PRIZMATIX, UHP-F-730, Israel) which covered the entire dish. While the cells were treated, the dish was placed on top of an aluminum block painted black, so that the excess NR light and that was not reflected back into the cell suspension while the aluminum block actED as a heat-sink, maintaining a constant temperature in the dish during the irradiation. The instrument for flow cytometry analysis (SONY, MA900 Multi-Application Cell Sorter) was already set up and calibrated by the time the light treatment was finished. Therefore, as soon as the 10-min light treatment was completed, the cell suspension was rapidly transferred from the 35 mm dish to a flow cytometry tube and the cells were analyzed for DAPI permeabilization and Cy7.5-amine binding. It took ˜30 s to load the sample and to start the analysis. […]

Row | SMILES | IC50 (A375 cells) [nM] | IC50 [1] [nM] | other results
1 | CN(C)CCCCCC[N+]1=C(/C=C/C2=CC(=C/C=C3/N(C)c4ccc5ccccc5c4C3(C)C)/CCC2)C(C)(C)c2c1ccc1ccccc21 [BL-141-2, 3-(6-(dimethylamino)hexyl)-1,1-dimethyl-2-((E)-2-((E)-3-((E)-2-(1,1,3-trimethyl-1,3-dihydro-2H-benzo[e]indol-2-ylidene)ethylidene)cyclohex-1-en-1-yl)vinyl)-1H-benzo[e]indol-3-ium] | 65 |  | 
2 | CN(C)CC[N+]1=C(/C=C/C2=CC(=C/C=C3/N(C)c4ccc5ccccc5c4C3(C)C)/CCC2)C(C)(C)c2c1ccc1ccccc21 [BL-204, 3-(2-(dimethylamino)ethyl)-1,1-dimethyl-2-((E)-2-((E)-3-((E)-2-(1,1,3-trimethyl-1,3-dihydro-2H-benzo[e]indol-2-ylidene)ethylidene)cyclohex-1-en-1-yl)vinyl)-1H-benzo[e]indol-3-ium] | 45 | 120 | 
3 | CN1/C(=C/C=C2C=C(/C=C/c3ccc4ccccc4[n+]3C)CCC/2)C=Cc2ccccc21 [BL-206] |  | > 8000 | 
4 | CN1/C(=C\C=C2C=C(/C=C/C3=[N+](CCCCCC(=O)NCCCCCCN)c4ccccc4C3(C)C)CCC\2)C(C)(C)c2ccccc21 [Cy7-amine] | 175 |  | permeabilization to DAPI staining, percentage of cells ([1]; 1 μM, 730 nm LED at 80 mW/cm^2 for 10 min): 0.8%; effect of 680 nm excitation on opening cell membranes ([1]; 680 nm LED, 80 mWcm^−2 for 10 min): improves the MJH effect for opening cell membranes
5 | CC1(C)C(/C=C/C=C/C=C/C=C2\N(CCCCS(=O)(=O)O)c3ccc4ccccc4c3C2(C)C)=[N+](CCCCS(=O)(=O)[O-])c2ccc3ccccc3c21 [ICG, indocynine green] |  | > 8000 | permeabilization of the cells to DAPI ([1]; 32 μM): 2%; permeabilization of the cells to DAPI ([1]; 400 μM): 14%
